System: Genes belonging to other category
Assay: DNA chip mRNA expression in yeast, genes belonging to other category (Table 9)
Type: cell-based, Saccharomyces cerevisiae S288C
How it was run: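 Expression change after 2 h toxicant exposure (growth-inhibiting, sub-lethal) of log-phase S. cerevisiae S288C at 25° C. Oligo-dT-purified mRNA was labeled with Cy3-dUTP or Cy5-dUTP and hybridized >12 h at 65° C. to a genome-wide chip; ratio of scanned fluorescence to control.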

SMILES: O=[N+]([O-])c1cc[n+]([O-])c2ccccc12 [(5), 4-nitroquinolin-N-oxide]
- The level of expressed mRNA in the presence of chemical substance/The level of expressed mRNA in the absence of chemical substance (yeast gene YHR169W): 1.1
- The level of expressed mRNA in the presence of chemical substance/The level of expressed mRNA in the absence of chemical substance (yeast gene YHR185C): 1.4
- The level of expressed mRNA in the presence of chemical substance/The level of expressed mRNA in the absence of chemical substance (yeast gene YHR195W): 1.5
- The level of expressed mRNA in the presence of chemical substance/The level of expressed mRNA in the absence of chemical substance (yeast gene YIL010W): 1.2
- The level of expressed mRNA in the presence of chemical substance/The level of expressed mRNA in the absence of chemical substance (yeast gene YIL076W): 1.8
- The level of expressed mRNA in the presence of chemical substance/The level of expressed mRNA in the absence of chemical substance (yeast gene YIL123W): 0.6
- The level of expressed mRNA in the presence of chemical substance/The level of expressed mRNA in the absence of chemical substance (yeast gene YIL140W): 0.8
- The level of expressed mRNA in the presence of chemical substance/The level of expressed mRNA in the absence of chemical substance (yeast gene YJL035C): 1.4
- The level of expressed mRNA in the presence of chemical substance/The level of expressed mRNA in the absence of chemical substance (yeast gene YJL053W): 1.1
- The level of expressed mRNA in the presence of chemical substance/The level of expressed mRNA in the absence of chemical substance (yeast gene YJL073W): 1.2
- The level of expressed mRNA in the presence of chemical substance/The level of expressed mRNA in the absence of chemical substance (yeast gene YJL089W): 1.1
- The level of expressed mRNA in the presence of chemical substance/The level of expressed mRNA in the absence of chemical substance (yeast gene YJL116C): 1.3
- The level of expressed mRNA in the presence of chemical substance/The level of expressed mRNA in the absence of chemical substance (yeast gene YJL164C): 1.1
- The level of expressed mRNA in the presence of chemical substance/The level of expressed mRNA in the absence of chemical substance (yeast gene YJL210W): 0.6
- The level of expressed mRNA in the presence of chemical substance/The level of expressed mRNA in the absence of chemical substance (yeast gene YJR004C): 1.1
- The level of expressed mRNA in the presence of chemical substance/The level of expressed mRNA in the absence of chemical substance (yeast gene YJR086W): 1.3
- The level of expressed mRNA in the presence of chemical substance/The level of expressed mRNA in the absence of chemical substance (yeast gene YJR117W): 1.2
- The level of expressed mRNA in the presence of chemical substance/The level of expressed mRNA in the absence of chemical substance (yeast gene YKL007W): 1.0
- The level of expressed mRNA in the presence of chemical substance/The level of expressed mRNA in the absence of chemical substance (yeast gene YKL008C): 0.9
- The level of expressed mRNA in the presence of chemical substance/The level of expressed mRNA in the absence of chemical substance (yeast gene YKL013C): 1.9
- The level of expressed mRNA in the presence of chemical substance/The level of expressed mRNA in the absence of chemical substance (yeast gene YKL039W): 0.7
- The level of expressed mRNA in the presence of chemical substance/The level of expressed mRNA in the absence of chemical substance (yeast gene YKL041W): 1.3
- The level of expressed mRNA in the presence of chemical substance/The level of expressed mRNA in the absence of chemical substance (yeast gene YKL096W): 0.6
- The level of expressed mRNA in the presence of chemical substance/The level of expressed mRNA in the absence of chemical substance (yeast gene YKL117W): 1.8
- The level of expressed mRNA in the presence of chemical substance/The level of expressed mRNA in the absence of chemical substance (yeast gene YKL165C): 0.9
- The level of expressed mRNA in the presence of chemical substance/The level of expressed mRNA in the absence of chemical substance (yeast gene YKL193C): 1.1
- The level of expressed mRNA in the presence of chemical substance/The level of expressed mRNA in the absence of chemical substance (yeast gene YKR076W): 1.0
- The level of expressed mRNA in the presence of chemical substance/The level of expressed mRNA in the absence of chemical substance (yeast gene YLR120C): 1.1
- The level of expressed mRNA in the presence of chemical substance/The level of expressed mRNA in the absence of chemical substance (yeast gene YLR136C): 1.6
- The level of expressed mRNA in the presence of chemical substance/The level of expressed mRNA in the absence of chemical substance (yeast gene YLR178C): 1.0
- The level of expressed mRNA in the presence of chemical substance/The level of expressed mRNA in the absence of chemical substance (yeast gene YLR250W): 1.4
- The level of expressed mRNA in the presence of chemical substance/The level of expressed mRNA in the absence of chemical substance (yeast gene YLR327C): 1.3
- The level of expressed mRNA in the presence of chemical substance/The level of expressed mRNA in the absence of chemical substance (yeast gene YLR356W): 1.1
- The level of expressed mRNA in the presence of chemical substance/The level of expressed mRNA in the absence of chemical substance (yeast gene YLR362W): 1.5
- The level of expressed mRNA in the presence of chemical substance/The level of expressed mRNA in the absence of chemical substance (yeast gene YLR391W): 1.2
- The level of expressed mRNA in the presence of chemical substance/The level of expressed mRNA in the absence of chemical substance (yeast gene YLR429W): 1.4
- The level of expressed mRNA in the presence of chemical substance/The level of expressed mRNA in the absence of chemical substance (yeast gene YMR004W): 1.0
- The level of expressed mRNA in the presence of chemical substance/The level of expressed mRNA in the absence of chemical substance (yeast gene YMR094W): 0.9
- The level of expressed mRNA in the presence of chemical substance/The level of expressed mRNA in the absence of chemical substance (yeast gene YMR104C): 0.7
- The level of expressed mRNA in the presence of chemical substance/The level of expressed mRNA in the absence of chemical substance (yeast gene YMR219W): 1.6
- The level of expressed mRNA in the presence of chemical substance/The level of expressed mRNA in the absence of chemical substance (yeast gene YMR226C): 0.9
- The level of expressed mRNA in the presence of chemical substance/The level of expressed mRNA in the absence of chemical substance (yeast gene YMR238W): 1.5
- The level of expressed mRNA in the presence of chemical substance/The level of expressed mRNA in the absence of chemical substance (yeast gene YMR275C): 0.7
- The level of expressed mRNA in the presence of chemical substance/The level of expressed mRNA in the absence of chemical substance (yeast gene YMR276W): 1.3
- The level of expressed mRNA in the presence of chemical substance/The level of expressed mRNA in the absence of chemical substance (yeast gene YMR297W): 0.6
- The level of expressed mRNA in the presence of chemical substance/The level of expressed mRNA in the absence of chemical substance (yeast gene YNL006W): 0.9
- The level of expressed mRNA in the presence of chemical substance/The level of expressed mRNA in the absence of chemical substance (yeast gene YNL007C): 1.2
- The level of expressed mRNA in the presence of chemical substance/The level of expressed mRNA in the absence of chemical substance (yeast gene YNL093W): 1.2
- The level of expressed mRNA in the presence of chemical substance/The level of expressed mRNA in the absence of chemical substance (yeast gene YNL333W): 1.5
- The level of expressed mRNA in the presence of chemical substance/The level of expressed mRNA in the absence of chemical substance (yeast gene YNR010W): 1.8
- The level of expressed mRNA in the presence of chemical substance/The level of expressed mRNA in the absence of chemical substance (yeast gene YNR069C): 1.4
- The level of expressed mRNA in the presence of chemical substance/The level of expressed mRNA in the absence of chemical substance (yeast gene YOL013C): 0.7
- The level of expressed mRNA in the presence of chemical substance/The level of expressed mRNA in the absence of chemical substance (yeast gene YOL109W): 1.0
- The level of expressed mRNA in the presence of chemical substance/The level of expressed mRNA in the absence of chemical substance (yeast gene YOL164W): 1.6
- The level of expressed mRNA in the presence of chemical substance/The level of expressed mRNA in the absence of chemical substance (yeast gene YOR036W): 1.1
- The level of expressed mRNA in the presence of chemical substance/The level of expressed mRNA in the absence of chemical substance (yeast gene YOR117W): 1.2
- The level of expressed mRNA in the presence of chemical substance/The level of expressed mRNA in the absence of chemical substance (yeast gene YOR124C): 1.1
- The level of expressed mRNA in the presence of chemical substance/The level of expressed mRNA in the absence of chemical substance (yeast gene YOR132W): 1.1
- The level of expressed mRNA in the presence of chemical substance/The level of expressed mRNA in the absence of chemical substance (yeast gene YOR157C): 0.7
- The level of expressed mRNA in the presence of chemical substance/The level of expressed mRNA in the absence of chemical substance (yeast gene YOR181W): 0.7
- The level of expressed mRNA in the presence of chemical substance/The level of expressed mRNA in the absence of chemical substance (yeast gene YOR185C): 1.2
- The level of expressed mRNA in the presence of chemical substance/The level of expressed mRNA in the absence of chemical substance (yeast gene YOR198C): 0.8
- The level of expressed mRNA in the presence of chemical substance/The level of expressed mRNA in the absence of chemical substance (yeast gene YOR259C): 2.0
- The level of expressed mRNA in the presence of chemical substance/The level of expressed mRNA in the absence of chemical substance (yeast gene YOR261C): 1.5
- The level of expressed mRNA in the presence of chemical substance/The level of expressed mRNA in the absence of chemical substance (yeast gene YOR288C): 1.1
- The level of expressed mRNA in the presence of chemical substance/The level of expressed mRNA in the absence of chemical substance (yeast gene YOR327C): 1.0
- The level of expressed mRNA in the presence of chemical substance/The level of expressed mRNA in the absence of chemical substance (yeast gene YOR355W): 1.0
- The level of expressed mRNA in the presence of chemical substance/The level of expressed mRNA in the absence of chemical substance (yeast gene YOR383C): 0.9
- The level of expressed mRNA in the presence of chemical substance/The level of expressed mRNA in the absence of chemical substance (yeast gene YPL010W): 1.4
- The level of expressed mRNA in the presence of chemical substance/The level of expressed mRNA in the absence of chemical substance (yeast gene YPL089C): 1.4
- The level of expressed mRNA in the presence of chemical substance/The level of expressed mRNA in the absence of chemical substance (yeast gene YPL109C): 1.2
- The level of expressed mRNA in the presence of chemical substance/The level of expressed mRNA in the absence of chemical substance (yeast gene YPL149W): 0.8
- The level of expressed mRNA in the presence of chemical substance/The level of expressed mRNA in the absence of chemical substance (yeast gene YPL154C): 1.2
- The level of expressed mRNA in the presence of chemical substance/The level of expressed mRNA in the absence of chemical substance (yeast gene YPR080W): 1.4
- The level of expressed mRNA in the presence of chemical substance/The level of expressed mRNA in the absence of chemical substance (yeast gene YPR103W): 1.7
- The level of expressed mRNA in the presence of chemical substance/The level of expressed mRNA in the absence of chemical substance (yeast gene YPR108W): 1.3
